{"source": "patent US7230007B2", "about": "“Derivatives of 3-(Guanidinocarbonyl) heterocycle, methods of preparation and intermediates thereof, their use as medicaments, and pharmaceutical compositions therefrom” (Sanofi-Aventis Deutschland GmbH, priority 2003, dated 2007)", "key": {"NHE1": {"molecular_target": "T1, NHE1 (Homo sapiens, UniProt P19634)", "T1 construct": "expressed in transfected cells", "T1 sequence (P19634 whole entry, species assumed)": "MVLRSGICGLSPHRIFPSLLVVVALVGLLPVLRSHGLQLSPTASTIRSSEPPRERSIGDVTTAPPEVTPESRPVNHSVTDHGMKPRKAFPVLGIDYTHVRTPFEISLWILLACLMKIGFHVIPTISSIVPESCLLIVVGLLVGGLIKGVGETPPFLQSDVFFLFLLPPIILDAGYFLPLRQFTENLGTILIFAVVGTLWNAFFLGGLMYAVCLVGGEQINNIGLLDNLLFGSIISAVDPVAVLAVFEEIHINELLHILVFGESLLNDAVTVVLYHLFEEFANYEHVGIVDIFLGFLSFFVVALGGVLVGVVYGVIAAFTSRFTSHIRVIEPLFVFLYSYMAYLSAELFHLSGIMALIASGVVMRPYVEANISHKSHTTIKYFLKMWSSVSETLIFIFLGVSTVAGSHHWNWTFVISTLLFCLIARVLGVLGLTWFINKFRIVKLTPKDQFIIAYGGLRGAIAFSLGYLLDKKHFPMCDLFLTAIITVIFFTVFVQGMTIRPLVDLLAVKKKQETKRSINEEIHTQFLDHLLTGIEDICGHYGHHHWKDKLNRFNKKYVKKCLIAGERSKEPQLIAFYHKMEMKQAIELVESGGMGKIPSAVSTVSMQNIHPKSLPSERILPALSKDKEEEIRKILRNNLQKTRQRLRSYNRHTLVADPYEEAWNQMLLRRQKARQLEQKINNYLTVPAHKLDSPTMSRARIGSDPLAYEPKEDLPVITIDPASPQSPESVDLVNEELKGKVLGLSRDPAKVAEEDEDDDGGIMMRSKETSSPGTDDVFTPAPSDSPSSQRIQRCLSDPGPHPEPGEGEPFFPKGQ", "assay": "NHE inhibition FLIPR test (intracellular pH recovery, BCECF)", "type": "cell-based", "settings": "transfected LAP-1 cell line expressing NHE1 subtype, pHi recovery after acidification", "protocol": "The NHE inhibitory activities (IC50 values) of the compounds according to the invention were determined by a FLIPR test.\nThe test is performed in the FLIPR (Fluorescent Imaging Plate Reader) equipped with clear-bottomed and black-walled 96-well microtitration plates.\nThe growth medium for the transfected cells (Iscove+10% foetal calf serum) also comprises G418 as selection antibiotic to ensure the presence of transfected sequences.\nThe actual test begins by eliminating the growth medium and adding 100 μl of loading buffer per well (5 μM of BCECF-AM [2′,7′-bis(2-carboxyethyl)-5-(6)-carboxyfluoresceine acetoxymethyl ester] in 20 mM of NH4Cl, 115 mM of choline chloride, 1 mM of CaCl2, 5 mM of KCl, 20 mM of HEPES and 5 mM of glucose; pH 7.4 (adjusted with KOH). The cells are then incubated for 20 minutes at 37° C. This incubation results in the loading of the fluorescent dye into the cells, the fluorescence intensity of which depends on the pHi, and on the NH4Cl, which results in a slight basification of the cells.\nThe precursor BCECF-AM, a non-fluorescent dye, is, as an ester, capable of crossing the membrane. The actual dye, which is incapable of crossing the membrane, is released inside the cell by esterases.\nAfter this 20-minute incubation, the loading buffer, which comprises NH4Cl and free BCECF-AM, is removed by washing three times in the cell washing device (Tecan Columbus), each wash being performed with 400 μl of washing buffer (133.8 mM of choline chloride, 4.7 mM of KCl, 1.25 mM of MgCl2,1.25 mM of CaCl2, 0.97 mM of K2HPO4, 0.23 mM of KH2PO4, 5 mM of HEPES and 5 mM of glucose; pH 7.4 (adjusted with KOH)). The residual volume remaining in the wells is 90 μl (possibly between 50 and 125 μl). This washing step removes the free BCECF-AM and results in an intracellular acidification (pHi of 6.3–6.4) due to the removal of the external ammonium ions.\nAs the equilibrium of the intracellular ammonium with the aqueous ammonia and the protons, by removal of the extracellular ammonium and by the subsequent immediate crossing of the aqueous ammonia across the cell membrane, is disrupted, the washing process results in intracellular protons remaining, which is the cause of the intracellular acidification. This acidification can result finally in the death of the cells if it lasts long enough. It is important here for the washing buffer to be free of sodium (<1 mM), otherwise the extracellular sodium ions would result in an immediate increase in the pHi on account of the activity of the cloned NHE isoforms. It is also important for all the buffers used (loading buffer, washing buffer and regeneration buffer) not to contain any HCO3^− ions, otherwise the presence of bicarbonate would result in the activation of bicarbonate-dependent systems that disrupt the pHi regulation, which systems are contained in the LAP-1 parental cell line.\nThe microtiter plates containing acidified cells are then transferred (up to 20 minutes after the acidification) to the FLIPR. In the FLIPR, the intracellular fluorescent dye is activated with light of a wavelength of 488 nm, which is generated by an argon laser, and the measuring parameters (laser power, illumination time and diaphragm of the […] camera integrated into the FLIPR) are chosen such that the average value of the fluorescent signal per well is between 30,000 and 35,000 relative fluorescence units.\nThe actual measurement in the FLIPR starts with a photograph being taken by the CCD camera every two seconds under software control. After 10 seconds, the increase in the intracellular pH is initiated by adding 90 μl. of regeneration buffer (133.8 mM of NaCl, 4.7 mM of KCl, 1.25 mM of MgCl2, 1.25 mM of CaCl2, 0.97 mM of K2HPO4, 0.23 mM of KH2PO4, 10 mM of HEPES and 5 mM of glucose; pH 7.4 (adjusted with NaOH)) using a 96-well pipette device incorporated into the FLIPR. Some wells, to which is added pure regeneration buffer, serve as positive controls (100% NHE activity). […]"}}, "note": "Counter-ions that a name gives are not always drawn.", "data": [{"compound": "CN(C)c1cccc(-n2cc(C(=O)NC(=N)N)c3cccnc32)c1", "note": "[Example 7, N-[1-(3-(Dimethylamino)phenyl)-1H-pyrrolo[2,3-b]pyridine-3-carbonyl]guanidine]", "values": [{"measurement": "IC50", "setting": "NHE1", "value": 0.003, "unit": "µM"}]}, {"compound": "N=C(N)NC(=O)c1cn(-c2nccc3ccccc23)c2ncccc12", "note": "[Example 3, N-[1-(Isoquinolin-1-yl)-1H-pyrrolo[2,3-b]pyridine-3-carbonyl]guanidine]", "values": [{"measurement": "IC50", "setting": "NHE1", "value": 0.015, "unit": "µM"}]}, {"compound": "CS(=O)(=O)c1ccc(-n2cc(C(=O)NC(=N)N)c3cccnc32)cc1", "note": "(as salt: hydrochloride) [Example 6, N-[1-(4-(Methylsulfonyl)phenyl)-1H-pyrrolo[2,3-b]pyridine-3-carbonyl]guanidine hydrochloride]", "values": [{"measurement": "melting point", "value": "266 to 270", "unit": "°C"}]}, {"compound": "Cl.N=C(N)NC(=O)c1cn(-c2ccccn2)c2ncccc12", "note": "[Example 5, N-[1-(Pyridin-2-yl)-1H-pyrrolo[2,3-b]pyridine-3-carbonyl]guanidine hydrochloride]", "values": [{"measurement": "IC50", "setting": "NHE1", "value": 0.018, "unit": "µM"}, {"measurement": "melting point", "value": "205 to 207", "unit": "°C"}]}, {"compound": "N=C(N)NC(=O)c1cn(-c2ccnc3ccccc23)c2ncccc12", "note": "[Example 1, N-[1-(Quinolin-4-yl)-1H-pyrrolo[2,3-b]pyridine-3-carbonyl]guanidine]", "values": [{"measurement": "IC50", "setting": "NHE1", "value": 0.003, "unit": "µM"}, {"measurement": "melting point", "value": 164, "unit": "°C"}]}, {"compound": "N=C(N)NC(=O)c1cn(-c2ccc3ccccc3n2)c2ncccc12", "note": "[Example 4, N-[1-(Quinolin-2-yl)-1H-pyrrolo[2,3-b]pyridine-3-carbonyl]guanidine]", "values": [{"measurement": "IC50", "setting": "NHE1", "value": 6.24, "unit": "µM"}]}, {"compound": "N=C(N)NC(=O)c1cn(-c2ccncc2)c2ncccc12", "note": "[Example 2, N-[1-(Pyridin-4-yl)-1H-pyrrolo[2,3-b]pyridine-3-carbonyl]guanidine]", "values": [{"measurement": "IC50", "setting": "NHE1", "value": 0.01, "unit": "µM"}, {"measurement": "melting point", "value": 210, "unit": "°C"}]}, {"compound": "CS(=O)(=O)c1ccc(-n2cc(C(=O)NC(=N)N)c3cccnc32)cc1", "note": "[Example 6, N-[1-(4-(Methylsulfonyl)phenyl)-1H-pyrrolo[2,3-b]pyridine-3-carbonyl]guanidine hydrochloride]", "values": [{"measurement": "IC50", "setting": "NHE1", "value": 3.76, "unit": "µM"}]}, {"compound": "N=C(N)NC(=O)c1cn(-c2cc(O)nc3ccccc23)c2ncccc12", "note": "[Example 10, N-[1-(2-Hydroxy-quinolin-4-yl)-1H-pyrrolo[2,3-b]pyridine-3-carbonyl]-guanidine]", "values": [{"measurement": "IC50", "setting": "NHE1", "value": 0.66, "unit": "µM"}]}, {"compound": "Cn1ccc2c(-n3cc(C(=O)NC(=N)N)c4cccnc43)ncnc21", "note": "[Example 9, N-[1-(7-Methyl-7H-pyrrolo[2,3-d]pyrimidin-4-yl)-1H-pyrrolo[2,3-b]pyridine-3-carbonyl]-guanidine]", "values": [{"measurement": "IC50", "setting": "NHE1", "value": 0.037, "unit": "µM"}, {"measurement": "melting point", "value": "> 260", "unit": "°C"}]}, {"compound": "Cc1cc(-n2cc(C(=O)NC(=N)N)c3cccnc32)c2ccccc2n1", "note": "[Example 8, N-[1-(2-Methylquinolin-4-yl)-1H-pyrrolo[2,3-b]pyridine-3-carbonyl]guanidine hydrochloride]", "values": [{"measurement": "IC50", "setting": "NHE1", "value": 0.026, "unit": "µM"}]}]}
